The compounds below were run on Jurkat (assay: MTS proliferation assay, Jurkat). Settings: 72 h incubation, read-out: MTS proliferation assay IC 50 Jurkat.
Assay type: cell-based, human
How it was run: (§1)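 Absorbance at 492 nm after 3 h with MTS reagent gave the proliferation read-out. Before that, cells in RPMI-1640 complete medium (5% or 10% FCS) were treated 72 h with compound at four final concentrations, 0.3 to 10 μM.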

SMILES	IC50 [nM]
Nc1ccc(C(=O)Cn2c(-c3nonc3N)nc3ccccc32)cn1 [Example 78]	< 10
N#CCCNc1nonc1-c1nc2ccccc2n1CC(=O)c1ccc(Br)cc1 [Example 47]	< 10

Each compound was assayed on Jily (assay: MTS proliferation assay, Jily). Settings: 72 h incubation, read-out: MTS proliferation assay IC 50 Jily.
Assay type: cell-based
How it was run: (§2)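 Read-out: MTS absorbance at 492 nm after 3 h reagent incubation. Before that, cells grew 72 h at 37° C/7.5% CO2 with test compounds at final concentrations of 10 μM, 3 μM, 1 μM and 0.3 μM, added 24 h post-seeding.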

SMILES	IC50 [nM]
Nc1ccc(C(=O)Cn2c(-c3nonc3N)nc3ccccc32)cn1 [Example 78]	< 10
N#CCCNc1nonc1-c1nc2ccccc2n1CC(=O)c1ccc(Br)cc1 [Example 47]	< 10

What follows are compounds tested on adherent cells or suspension cells (assay: Hoechst 33342 nuclear staining (fraction of apoptotic nuclei)). Settings: H460, conc 0.01 μm.
Assay type: cell-based
Design: key: 0 relating to no activity; 1 relating to weak activity comprising less than 70% of the cells; score 2 relating to strong activity comprising more than 70% of the cells

SMILES	Hoechst 33342 nuclear staining score
Nc1ccc(C(=O)Cn2c(-c3nonc3N)nc3ccccc32)cn1 [Example 78]	2 (score 2 relating to strong activity comprising more than 70% of the cells)
N#CCCNc1nonc1-c1nc2ccccc2n1CC(=O)c1ccc(Br)cc1 [Example 47]	0

Same assay, conditions: H460, conc 0.1 μm

SMILES	Hoechst 33342 nuclear staining score
Nc1ccc(C(=O)Cn2c(-c3nonc3N)nc3ccccc32)cn1 [Example 78]	2 (score 2 relating to strong activity comprising more than 70% of the cells)
N#CCCNc1nonc1-c1nc2ccccc2n1CC(=O)c1ccc(Br)cc1 [Example 47]	2 (score 2 relating to strong activity comprising more than 70% of the cells)

Same assay, conditions: H460, conc 1 μm

SMILES	Hoechst 33342 nuclear staining score
Nc1ccc(C(=O)Cn2c(-c3nonc3N)nc3ccccc32)cn1 [Example 78]	2 (score 2 relating to strong activity comprising more than 70% of the cells)
N#CCCNc1nonc1-c1nc2ccccc2n1CC(=O)c1ccc(Br)cc1 [Example 47]	2 (score 2 relating to strong activity comprising more than 70% of the cells)

Same assay, conditions: HeLa, conc 0.01 μm

SMILES	Hoechst 33342 nuclear staining score
Nc1ccc(C(=O)Cn2c(-c3nonc3N)nc3ccccc32)cn1 [Example 78]	2 (score 2 relating to strong activity comprising more than 70% of the cells)
N#CCCNc1nonc1-c1nc2ccccc2n1CC(=O)c1ccc(Br)cc1 [Example 47]	0

Same assay, conditions: HeLa, conc 0.1 μm

SMILES	Hoechst 33342 nuclear staining score
Nc1ccc(C(=O)Cn2c(-c3nonc3N)nc3ccccc32)cn1 [Example 78]	2 (score 2 relating to strong activity comprising more than 70% of the cells)
N#CCCNc1nonc1-c1nc2ccccc2n1CC(=O)c1ccc(Br)cc1 [Example 47]	2 (score 2 relating to strong activity comprising more than 70% of the cells)

Same assay, conditions: HeLa, conc 1 μm

SMILES	Hoechst 33342 nuclear staining score
Nc1ccc(C(=O)Cn2c(-c3nonc3N)nc3ccccc32)cn1 [Example 78]	2 (score 2 relating to strong activity comprising more than 70% of the cells)
N#CCCNc1nonc1-c1nc2ccccc2n1CC(=O)c1ccc(Br)cc1 [Example 47]	2 (score 2 relating to strong activity comprising more than 70% of the cells)

Same assay, conditions: Jily, conc 0.01 μm

SMILES	Hoechst 33342 nuclear staining score
Nc1ccc(C(=O)Cn2c(-c3nonc3N)nc3ccccc32)cn1 [Example 78]	2 (score 2 relating to strong activity comprising more than 70% of the cells)
N#CCCNc1nonc1-c1nc2ccccc2n1CC(=O)c1ccc(Br)cc1 [Example 47]	0

Same assay, conditions: Jily, conc 0.1 μm

SMILES	Hoechst 33342 nuclear staining score
Nc1ccc(C(=O)Cn2c(-c3nonc3N)nc3ccccc32)cn1 [Example 78]	2 (score 2 relating to strong activity comprising more than 70% of the cells)
N#CCCNc1nonc1-c1nc2ccccc2n1CC(=O)c1ccc(Br)cc1 [Example 47]	2 (score 2 relating to strong activity comprising more than 70% of the cells)

Same assay, conditions: Jily, conc 1 μm

SMILES	Hoechst 33342 nuclear staining score
Nc1ccc(C(=O)Cn2c(-c3nonc3N)nc3ccccc32)cn1 [Example 78]	2 (score 2 relating to strong activity comprising more than 70% of the cells)
N#CCCNc1nonc1-c1nc2ccccc2n1CC(=O)c1ccc(Br)cc1 [Example 47]	2 (score 2 relating to strong activity comprising more than 70% of the cells)

Same assay, conditions: Jurkat, conc 0.01 μm

SMILES	Hoechst 33342 nuclear staining score
Nc1ccc(C(=O)Cn2c(-c3nonc3N)nc3ccccc32)cn1 [Example 78]	2 (score 2 relating to strong activity comprising more than 70% of the cells)
N#CCCNc1nonc1-c1nc2ccccc2n1CC(=O)c1ccc(Br)cc1 [Example 47]	2 (score 2 relating to strong activity comprising more than 70% of the cells)

Same assay, conditions: Jurkat, conc 0.1 μm

SMILES	Hoechst 33342 nuclear staining score
Nc1ccc(C(=O)Cn2c(-c3nonc3N)nc3ccccc32)cn1 [Example 78]	2 (score 2 relating to strong activity comprising more than 70% of the cells)
N#CCCNc1nonc1-c1nc2ccccc2n1CC(=O)c1ccc(Br)cc1 [Example 47]	2 (score 2 relating to strong activity comprising more than 70% of the cells)

Same assay, conditions: Jurkat, conc 1 μm

SMILES	Hoechst 33342 nuclear staining score
Nc1ccc(C(=O)Cn2c(-c3nonc3N)nc3ccccc32)cn1 [Example 78]	2 (score 2 relating to strong activity comprising more than 70% of the cells)
N#CCCNc1nonc1-c1nc2ccccc2n1CC(=O)c1ccc(Br)cc1 [Example 47]	2 (score 2 relating to strong activity comprising more than 70% of the cells)

Same assay, conditions: MRC5, conc 0.01 μm

SMILES	Hoechst 33342 nuclear staining score
Nc1ccc(C(=O)Cn2c(-c3nonc3N)nc3ccccc32)cn1 [Example 78]	1 (1 relating to weak activity comprising less than 70% of the cells)
N#CCCNc1nonc1-c1nc2ccccc2n1CC(=O)c1ccc(Br)cc1 [Example 47]	0

Same assay, conditions: MRC5, conc 0.1 μm

SMILES	Hoechst 33342 nuclear staining score
Nc1ccc(C(=O)Cn2c(-c3nonc3N)nc3ccccc32)cn1 [Example 78]	2 (score 2 relating to strong activity comprising more than 70% of the cells)
N#CCCNc1nonc1-c1nc2ccccc2n1CC(=O)c1ccc(Br)cc1 [Example 47]	2 (score 2 relating to strong activity comprising more than 70% of the cells)

Same assay, conditions: MRC5, conc 1 μm

SMILES	Hoechst 33342 nuclear staining score
Nc1ccc(C(=O)Cn2c(-c3nonc3N)nc3ccccc32)cn1 [Example 78]	2 (score 2 relating to strong activity comprising more than 70% of the cells)
N#CCCNc1nonc1-c1nc2ccccc2n1CC(=O)c1ccc(Br)cc1 [Example 47]	2 (score 2 relating to strong activity comprising more than 70% of the cells)

Same assay, conditions: PBLs, conc 0.01 μm

SMILES	Hoechst 33342 nuclear staining score
Nc1ccc(C(=O)Cn2c(-c3nonc3N)nc3ccccc32)cn1 [Example 78]	0
N#CCCNc1nonc1-c1nc2ccccc2n1CC(=O)c1ccc(Br)cc1 [Example 47]	0

Same assay, conditions: PBLs, conc 0.1 μm

SMILES	Hoechst 33342 nuclear staining score
Nc1ccc(C(=O)Cn2c(-c3nonc3N)nc3ccccc32)cn1 [Example 78]	0
N#CCCNc1nonc1-c1nc2ccccc2n1CC(=O)c1ccc(Br)cc1 [Example 47]	0

Same assay, conditions: PBLs, conc 1 μm

SMILES	Hoechst 33342 nuclear staining score
Nc1ccc(C(=O)Cn2c(-c3nonc3N)nc3ccccc32)cn1 [Example 78]	0
N#CCCNc1nonc1-c1nc2ccccc2n1CC(=O)c1ccc(Br)cc1 [Example 47]	0

The compounds below were run on HeLa (assay: MTS proliferation assay, HeLa). Settings: 72 h incubation, read-out: MTS proliferation assay IC 50 HeLa.
Assay type: cell-based, human
How it was run: as §1

SMILES	IC50 [nM]
Nc1ccc(C(=O)Cn2c(-c3nonc3N)nc3ccccc32)cn1 [Example 78]	< 10
N#CCCNc1nonc1-c1nc2ccccc2n1CC(=O)c1ccc(Br)cc1 [Example 47]	10 to 100

What follows are compounds tested on HT1080 (assay: MTS proliferation assay, HT1080). Settings: HT1080, 72 h incubation; read-out: MTS proliferation assay IC 50 HT1080.
Assay type: cell-based, human
How it was run: as §1

SMILES	IC50 [nM]
Nc1ccc(C(=O)Cn2c(-c3nonc3N)nc3ccccc32)cn1 [Example 78]	< 10
N#CCCNc1nonc1-c1nc2ccccc2n1CC(=O)c1ccc(Br)cc1 [Example 47]	10 to 100

The compounds below were run on MRC5 (assay: MTS proliferation assay, MRC5). Settings: MRC5, 72 h incubation; read-out: MTS proliferation assay IC 50 MRC5.
Assay type: cell-based
How it was run: as §2

SMILES	IC50 [nM]
Nc1ccc(C(=O)Cn2c(-c3nonc3N)nc3ccccc32)cn1 [Example 78]	< 10
N#CCCNc1nonc1-c1nc2ccccc2n1CC(=O)c1ccc(Br)cc1 [Example 47]	100 to 1000

From patent USRE42890E1, “Furazanobenzimidazoles” (Basilea Pharmaceutica AG, priority 2003, dated 2011)
